Reference: patent US6737383B1, “Herbicidal oxadiazolidines” (priority 1999, dated 2004)

Experiments:
[1] = test system: winter barley; assay: Test E winter barley; assay type: in vivo, Hordeum vulgare; conditions: Preemergence
[2] = test system: blackgrass; assay: Test B pre/postemergence blackgrass; assay type: in vivo, Alopecurus myosuroides
Summary of the method: (§1)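 Test chemicals in a non-phytotoxic solvent mixture with surfactant were sprayed preemergence onto planted seeds and postemergence onto plants 2 to 18 cm tall (1- to 4-leaf stage). After twelve to sixteen days in a greenhouse, injury was visually rated against untreated controls from 0 (no effect) to 10 (complete control).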

[3] = test system: Italian ryegrass; assay: Test E Italian ryegrass; assay type: in vivo, Lolium multiflorum; conditions: Preemergence
[4] = test system: winter wheat; assay: Test E winter wheat; assay type: in vivo, Triticum aestivum; conditions: Preemergence
[5] = test system: large crabgrass; assay: Test D large crabgrass; assay type: in vivo, Digitaria sanguinalis; conditions: Preemergence, 0 to 100 scale
Summary of the method: (§2)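 Each weed species is planted in its own pot or compartment; preemergence doses go on the sandy loam surface within a day. The formulation is a surfactant-containing, non-phytotoxic solvent blend. Ratings come from visual comparison with untreated controls 14 to 21 days later, where 100 means complete control.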

[6] = test system: blackgrass; assay: Test E blackgrass; assay type: in vivo, Alopecurus myosuroides; conditions: Preemergence
[7] = test system: crabgrass; assay: Test B pre/postemergence crabgrass; assay type: in vivo, Digitaria sanguinalis
Summary of the method: as §1

[8] = test system: morningglory; assay: Test B pre/postemergence morningglory; assay type: in vivo, Ipomoea hederacea
Summary of the method: as §1

[9] = test system: bamyardgrass; assay: Test B flood test barnyardgrass; assay type: in vivo, Echinochloa crus-galli
Summary of the method: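 Plants were grown to the 2-leaf stage before treatment with test chemical, then held in a greenhouse for twelve to sixteen days. Injury was visually rated against untreated controls on a 0–10 scale, where 0 is no effect and 10 is complete control.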

[10] = test system: wild oat; assay: Test E wild oat; assay type: in vivo, Avena fatua; conditions: Preemergence, 0 to 100 scale where 0 is no effect and 100 is complete control
[11] = test system: purple nutsedge; assay: Test D purple nutsedge; assay type: in vivo, Cyperus rotundus; conditions: Preemergence, 0 to 100 scale
Summary of the method: as §2

[12] = test system: winter wheat; assay: Test E winter wheat; assay type: in vivo, Triticum aestivum; conditions: Postemergence
Summary of the method: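 Postemergence: spray at 1–4 leaf stage, soil 60:40 sandy loam:potting mix; solvent + surfactant formulation; greenhouse 21–28 d; visual injury vs untreated controls.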

[13] = test system: Spanishneedles; assay: Test D Spanishneedles; assay type: in vivo, Bidens bipinnata; conditions: Preemergence, 0 to 100 scale
Summary of the method: as §2

[14] = test system: green foxtail; assay: Test E green foxtail; assay type: in vivo, Setaria viridis; conditions: Preemergence
[15] = test system: common pursiane; assay: Test D common purslane; assay type: in vivo, Portulaca oleracea; conditions: Preemergence, 0 to 100 scale
Summary of the method: as §2

[16] = Rate 500 g/ha, 0 to 100 scale where 0 is no effect and 100 is complete control
[17] = Rate 1000 g/ha, 0 to 100 scale where 0 is no effect and 100 is complete control
[18] = Postemergence, Rate 125 g/ha, scale of 0 to 10 where 0 is no effect and 10 is complete control
[19] = Postemergence, Rate 250 g/ha, scale 0 to 10, 0 no effect, 10 complete control
[20] = Preemergence, Rate 62 g/ha, scale 0 to 10 (0 no effect, 10 complete control)
[21] = Preemergence, Rate 125 g/ha, scale 0 to 10 (0 no effect, 10 complete control)
[22] = Preemergence, Rate 250 g/ha, scale of 0 to 10 where 0 is no effect and 10 is complete control
[23] = Preemergence, Rate 500 g/ha, scale 0 to 10 (0 no effect, 10 complete control)
[24] = Rate 62 g/ha, Postemergence, scale of 0 to 10 where 0 is no effect and 10 is complete control
[25] = Rate 500 g/ha, Postemergence, scale 0 to 10, 0 no effect, 10 complete control
[26] = Rate 16 g/ha, 0 no injury, 100 complete control
[27] = Rate 32 g/ha, 0 no injury, 100 complete control
[28] = Rate 64 g/ha, 0 no injury, 100 complete control
[29] = Rate 125 g/ha, 0 no injury, 100 complete control

CC(C)N(C(=O)n1oc(=O)n(Cc2cccs2)c1=O)c1ccccc1 [Compound 103]
50: Plant response rating, Barley (winter) [1, 17] | Plant response rating, I. Ryegrass ([3]; Rate 250 g/ha, 0 to 100 scale) | Plant response rating, I. Ryegrass [3, 16] | Plant response rating, Blackgrass [6, 16] | Plant response rating, Wild oat ([10]; Rate 500 g/ha)
30: Plant response rating, Barley (winter) ([1]; Rate 250 g/ha, 0 to 100 scale) | Plant response rating, Wheat (winter) [4, 16] | Plant response rating, Wheat (winter) [4, 17] | Plant response rating, Blackgrass ([6]; Rate 250 g/ha, 0 to 100 scale)
5: Blackgrass plant response rating [2, 23]
4: Blackgrass plant response rating [2, 19] | Blackgrass plant response rating [2, 25] | Crabgrass plant response rating [7, 18]
3: Plant response rating, Blackgrass [2, 22]
2: Crabgrass plant response rating [7, 20]
98: Plant response rating, Large crabgrass ([5]; Rate 250 g/ha)
40: Plant response rating, Barley (winter) [1, 16]
1: Blackgrass plant response rating [2, 18]
85: Plant response rating, Large crabgrass [5, 28]
0: Blackgrass plant response rating [2, 20] | Plant response rating, Blackgrass [2, 21] | Blackgrass plant response rating [2, 24] | Plant response rating, Large crabgrass [5, 26] | Plant response rating, Large crabgrass [5, 27] | Crabgrass plant response rating [7, 24] | Morningglory plant response rating [8, 20] | Plant response rating, Morningglory [8, 21] | Plant response rating, Morningglory [8, 22] | Morningglory plant response rating [8, 23] | Barnyardgrass plant response rating ([9]; Rate 250 g/ha, headed Pre-emergence (flood test species), scale 0 to 10 (0 no effect, 10 complete control)) | Plant response rating, Barnyardgrass ([9]; Rate 500 g/ha, headed Pre-emergence (flood test species), scale 0 to 10 (0 no effect, 10 complete control)) | Barnyardgrass plant response rating ([9]; Rate 1000 g/ha, Pre-emergence (as headed), scale 0 to 10) | Barnyardgrass plant response rating ([9]; Rate 2000 g/ha, Pre-emergence (as headed), scale 0 to 10, 0 no effect, 10 complete control) | Plant response rating, Purple nutsedge [11, 26] | Plant response rating, Purple nutsedge [11, 27] | Purple nutsedge plant response rating [11, 28] | Purple nutsedge plant response rating [11, 29] | Plant response rating, Purple nutsedge ([11]; Rate 250 g/ha) | Plant response rating, Wheat (winter) ([12]; Rate 250 g/ha, 0 to 100 scale (0 no effect, 100 complete control)) | Plant response rating, Wheat (winter) ([12]; Rate 500 g/ha, 0 to 100 scale, 0 no effect, 100 complete control) | Plant response rating, Spanishneedles [13, 26] | Plant response rating, Spanishneedles [13, 27] | Spanishneedles plant response rating [13, 28] | Spanishneedles plant response rating [13, 29] | Plant response rating, C. purslane [15, 26] | Plant response rating, C. purslane [15, 27] | Plant response rating, C. purslane [15, 28] | Plant response rating, C. purslane [15, 29] | Plant response rating, C. purslane ([15]; Rate 250 g/ha) | Plant response rating, C. purslane ([15]; Rate 500 g/ha)
20: Plant response rating, Wheat (winter) ([4]; Rate 250 g/ha, 0 to 100 scale) | Plant response rating, Spanishneedles ([13]; Rate 500 g/ha)
6: Crabgrass plant response rating [7, 19] | Plant response rating, Crabgrass [7, 21]
95: Plant response rating, Large crabgrass [5, 29]
70: Plant response rating, I. Ryegrass [3, 17] | Plant response rating, Blackgrass [6, 17] | Plant response rating, Wild oat ([10]; Rate 1000 g/ha) | Plant response rating, Green foxtail ([14]; Rate 250 g/ha, 0 to 100 scale) | Plant response rating, Green foxtail [14, 16]
9: Plant response rating, Crabgrass [7, 22] | Crabgrass plant response rating [7, 25]
8: Morningglory plant response rating [8, 24]
10: Morningglory plant response rating [8, 18] | Morningglory plant response rating [8, 19] | Morningglory plant response rating [8, 25] | Plant response rating, Purple nutsedge ([11]; Rate 500 g/ha) | Plant response rating, Wheat (winter) ([12]; Rate 1000 g/ha, 0 to 100 scale, 0 is no effect and 100 is complete control)
100: Plant response rating, Large crabgrass ([5]; Rate 500 g/ha) | Plant response rating, Green foxtail [14, 17]
